Measured values from patent publication US20090233910A1, “Npy antagonists, preparation and uses” (CEREP, priority 2005, published 2009).

How the values were obtained:
NPY Y1 receptor = target: T1, NPY Y1 receptor (Homo sapiens, UniProt P25929); assay: Binding test to the NPY Y1 receptor ([125I]-PYY, SK-N-MC cell suspension); details: SK-N-MC cells, 25 pM [125I]-PYY
T1 construct: host or cells: SK-N-MC cells (whole-cell suspension)
T1 sequence (P25929 1-384): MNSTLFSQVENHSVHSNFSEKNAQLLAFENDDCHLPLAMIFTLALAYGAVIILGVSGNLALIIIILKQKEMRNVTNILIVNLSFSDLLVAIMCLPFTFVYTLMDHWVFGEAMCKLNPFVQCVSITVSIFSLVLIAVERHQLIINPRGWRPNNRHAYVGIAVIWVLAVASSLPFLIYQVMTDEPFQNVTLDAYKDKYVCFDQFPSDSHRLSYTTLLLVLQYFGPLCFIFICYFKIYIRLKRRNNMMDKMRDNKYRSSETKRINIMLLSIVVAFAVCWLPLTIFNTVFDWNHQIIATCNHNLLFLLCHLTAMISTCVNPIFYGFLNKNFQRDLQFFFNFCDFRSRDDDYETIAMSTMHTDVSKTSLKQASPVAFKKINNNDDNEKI
Method: The SK-N-MC cells (ATCC HBT10) are cultured at 37° C. in MEM medium (minimum essential medium) free of phenol red (Invitrogen ref. 04194565M) containing 10% foetal calf serum (Invitrogen ref. 10270-106), 1% non-essential aminoacids (Invitrogen ref. 11140-035), 1% sodium pyruvate (Invitrogen ref. 11360-039), 1% glutamine (Invitrogen ref. 25030-032), 100 IU/ml of penicillin and 100 μg/ml of streptomycin (Invitrogen ref. 15140-122) in a humid atmosphere containing 5% CO2.
After aspirating the culture medium, the cells are washed with a phosphate buffer pH 7.4 (Invitrogen ref. 14190-094), then lifted with a Versene solution (Invitrogen, ref 15040-033). The cells are centrifuged at 500×g for 10 minutes at 4° C. then resuspended in a freeze buffer pH 7.4 containing 50 mM HEPES (N-2-hydroxyethylpiperazine-N′-2-ethanesulfonic acid), 145 mM sodium chloride, 2.6 mM calcium chloride, 1 mM magnesium chloride, 10 mM glucose, and 1 mg/ml bovine albumin. The cell suspension is aliquoted into twenty million cells per milliliter of buffer and stored at −70° C.
The cell suspension is incubated 2 hours at 37° C. in an incubation buffer pH 7.4 containing 50 mM HEPES, 2.5 mM calcium chloride, 1 mM magnesium chloride, 0.025% sodium azide, 1 mg/ml bovine albumin and 25 pM [^125I]-PYY (Perkin Elmer, NEX341). The reaction is halted by filtering through a GF/B filter pre-treated with 0.3% PEI, and washed three times with 1 ml of 50 mM TRIS buffer [tris(hydroxymethyl)aminomethane]/HCl, pH 7.4. The radioactivity deposited on the filter is measured by liquid scintillation count (TopCount, Packard). Non-specific binding is determined in the presence of 1 μM NPY (Bachem, H3322). Results are expressed as IC50 values in nM calculated by non-linear regression with 4 parameters.

human Y4 receptor = target: T2, human Y4 receptor (Homo sapiens, UniProt P50391); assay: Binding test to the NPY Y4 receptor ([125I]-human PP, CHO cell membranes); details: human Y4, [125I]-human PP
T2 construct: expressed in transfected cells; host or cells: CHO cells (CHO-Y4H), membrane preparation
Method: (§1) The CHO cells expressing either the Y4 or the Y5 human recombinant receptor are cultured in DMEM medium to which is added 5% dialysed foetal calf serum, 10 mM Hepes buffer and 0.8 g/l sodium bicarbonate. They are lifted from their support using a 36 mM citrate buffer without trypsin and without EDTA, and washed in PBS buffer free of Ca^2+ and of Mg^2+. The cell residues are stored at (−80° C.) until fractioning.
(§2) The cell residue is redissolved in 10 mM TRIS buffer, 3 mM MgCl2, pH 7.4 and separated with polytron. After centrifuging at 20 000×g the residue is redissolved in this same buffer, potter separated and aliquoted for storage in liquid nitrogen to around 5 mg/ml proteins.
(§3) Approximately 80 μg of membranes of CHO cells having stable expression of the human Y4 receptor are incubated for 60 min at 30° C. in 200 μl Krebs-Ringer buffer (pH 7.4) containing 20 mM Hepes, 1% bovine serum albumin, 0.25 mg/ml bacitracin and 0.1 nM of [^125I]-human PP (Pancreatic Polypeptide, Perkin Elmer, NEX 315). The reaction is halted by filtering through Wathman GF/C filters and washing with 3 times 4 ml of buffer at 4° C. The radioactivity deposited on the filter is counted with a gamma counter (Whizard 1470, Wallac, Perkin Elmer). Non-specific binding is determined in the presence of 0.3 μM of human PP (Neosystem, SC104). […]

human Y5 receptor = target: T3, human Y5 receptor (Homo sapiens, UniProt Q15761); assay: Binding test to the NPY Y5 receptor ([125I]-human PYY, CHO cell membranes)
T3 construct: expressed in transfected cells; host or cells: CHO cells (CHO-Y5H), membrane preparation
T3 sequence (Q15761 1-445): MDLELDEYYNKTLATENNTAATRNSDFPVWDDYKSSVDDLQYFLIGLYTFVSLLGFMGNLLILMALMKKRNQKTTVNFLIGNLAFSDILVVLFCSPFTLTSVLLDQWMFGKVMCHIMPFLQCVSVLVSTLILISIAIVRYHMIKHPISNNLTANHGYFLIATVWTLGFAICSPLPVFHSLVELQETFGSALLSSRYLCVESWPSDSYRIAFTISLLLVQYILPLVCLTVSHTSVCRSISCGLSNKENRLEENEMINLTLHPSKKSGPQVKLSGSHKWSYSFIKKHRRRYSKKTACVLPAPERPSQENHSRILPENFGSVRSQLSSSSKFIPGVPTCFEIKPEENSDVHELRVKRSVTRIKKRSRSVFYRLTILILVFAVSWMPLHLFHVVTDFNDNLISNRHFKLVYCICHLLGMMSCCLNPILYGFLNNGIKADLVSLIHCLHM
Method: as §1, §2
as §3, with “Y5” for “Y4”, “PYY (Perkin” for “PP (Pancreatic Polypeptide, Perkin”, “341).” for “315).”, “porcine NPY” for “of human PP”, “SC116).” for “SC104).”

T2 sequence (P50391 whole entry): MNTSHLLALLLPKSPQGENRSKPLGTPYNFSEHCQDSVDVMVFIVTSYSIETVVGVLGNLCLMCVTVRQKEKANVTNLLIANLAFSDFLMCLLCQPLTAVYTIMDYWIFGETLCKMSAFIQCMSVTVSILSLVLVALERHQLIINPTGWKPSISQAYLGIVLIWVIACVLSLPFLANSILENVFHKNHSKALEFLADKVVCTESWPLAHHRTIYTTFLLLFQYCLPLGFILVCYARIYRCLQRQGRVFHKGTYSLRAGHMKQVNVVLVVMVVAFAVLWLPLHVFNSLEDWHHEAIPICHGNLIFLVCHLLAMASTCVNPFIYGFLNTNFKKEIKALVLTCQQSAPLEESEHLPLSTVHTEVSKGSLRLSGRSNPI

## CCCCN1CCC(Oc2ccc(C(=O)Nc3ccc(Oc4ccc(NC(=O)NC(CC)CC)cc4OC)cc3)cc2)CC1 [Example 103, 4-(1-Butyl-piperidin-4-yloxy)-N-(4-{4-[3-(1-ethyl-propyl)-ureido]-2-methoxy-phenoxy}-phenyl)-benzamide]
NPY Y1 receptor
  IC50: 1.8 nM
Human Y4 receptor
  IC50: 2620 nM
Human Y5 receptor; CHO membranes, human Y5, [125I]-human PYY
  IC50: > 10000 nM
Human Y5 receptor; inhibition of specific binding at 10 μM of compound, read-out: % Inh at 10 μM Y5
  inhibition at 10 µM: 0%
